How the values were obtained:
H358 cells = experiment: Antiproliferative activity against H358 cells (Cell Titer Glow, ultra-low attachment plate); type: cell-based; conditions: Homo sapiens, NCI-H358, 72 h, 96-well ultra-low attachment plate, three days after addition of compound, Cell Titer Glow
Protocol: 2500 H358 cells were seeded in a 96-well ultra-low attachment plate (corning, 7007). After one day of growth, a serially diluted compound (a maximum concentration of 5 μM, 5-fold dilution, a total of five doses) was added. Three days after the addition of the compound, Cell Titer Glow (Promega, G9681) was added to evaluate pellet growth, and the IC50 value was calculated.

pERK level in H358 cells = experiment: pERK and ERK protein content assay in H358 cells (ELISA); type: cell-based; conditions: Homo sapiens, NCI-H358, compound 1 μM, 24 h, pERK/ERK ratio compared with DMSO group, read-out: Inhibition rate (%) of pERK level
Summary of the method: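 H358 cells grown one day, then treated 24 h with compound at 1 μM. pERK and ERK in lysates measured by ELISA; pERK/ERK ratio expressed as percent inhibition versus DMSO.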

Row | Structure (SMILES) | IC50 (H358 cells) [nM] | inhibition at 1 µM (pERK level in H358 cells) [%]
1 | C=CC(=O)N1CC2(CCN(c3nc(N4CC[C@@H](N5CCC5)C4)nc4c(OCC(F)(F)F)c(-c5c(C)ccc6[nH]ncc56)c(C5CC5)cc34)CC2)C1 [Compound 182] | < 300 | > 90
2 | C=CC(=O)N1CC2(CCN(c3nc(N4CC[C@H](N5CCCC5)C4)nc4c(OCC(F)(F)F)c(-c5c(C)ccc6[nH]ncc56)c(C5CC5)cc34)CC2)C1 [Compound 183] | < 300 | > 90
3 | C=CC(=O)N1CC2(CCN(c3nc(N4CC[C@@H](N5CCCC5)C4)nc4c(OCC(F)(F)F)c(-c5c(C)ccc6[nH]ncc56)c(C5CC5)cc34)CC2)C1 [Compound 184] | < 300 | > 90
4 | C=CC(=O)N1CC2(CCN(c3nc(N4CC[C@H](N(C)C)C4)nc4c(OCC(F)(F)F)c(-c5c(C)ccc6[nH]ncc56)c(C5CC5)cc34)CC2)C1 [Compound 185] | < 300 | > 90
5 | C=CC(=O)N1CC2(CCN(c3nc(N4CC[C@@H](N(C)C)C4)nc4c(OCC(F)(F)F)c(-c5c(C)ccc6[nH]ncc56)c(C5CC5)cc34)CC2)C1 [Compound 186] | < 300 | > 90
6 | C=CC(=O)N1CC2(CCN(c3nc(N4CC[C@H](N(C)CC)C4)nc4c(OCC(F)(F)F)c(-c5c(C)ccc6[nH]ncc56)c(C5CC5)cc34)CC2)C1 [Compound 187] | < 300 | > 90
7 | C=CC(=O)N1CC2(CCN(c3nc(N4CC[C@@H](N(C)CC)C4)nc4c(OCC(F)(F)F)c(-c5c(C)ccc6[nH]ncc56)c(C5CC5)cc34)CC2)C1 [Compound 188] | < 300 | > 90
8 | C=CC(=O)N1CC2(CCN(c3nc(N4CC[C@H](N(CC)CC)C4)nc4c(OCC(F)(F)F)c(-c5c(C)ccc6[nH]ncc56)c(C5CC5)cc34)CC2)C1 [Compound 189] | < 300 | > 90
9 | C=CC(=O)N1CC2(CCN(c3nc(N4CC[C@@H](N(CC)CC)C4)nc4c(OCC(F)(F)F)c(-c5c(C)ccc6[nH]ncc56)c(C5CC5)cc34)CC2)C1 [Compound 190] | < 300 | > 90
10 | C=CC(=O)N1CC2(CCN(c3nc(N4CC[C@H](N5CC[C@H](F)C5)C4)nc4c(OCC(F)(F)F)c(-c5c(C)ccc6[nH]ncc56)c(C5CC5)cc34)CC2)C1 [Compound 191] | < 300 | > 90
11 | C=CC(=O)N1CC2(CCN(c3nc(N4CC[C@@H](N5CC[C@H](F)C5)C4)nc4c(OCC(F)(F)F)c(-c5c(C)ccc6[nH]ncc56)c(C5CC5)cc34)CC2)C1 [Compound 192] | < 300 | > 90
12 | C=CC(=O)N1CC2(CCN(c3nc(N4CC[C@H](N5CC[C@@H](F)C5)C4)nc4c(OCC(F)(F)F)c(-c5c(C)ccc6[nH]ncc56)c(C5CC5)cc34)CC2)C1 [Compound 193] | < 300 | > 90
13 | C=CC(=O)N1CC2(CCN(c3nc(N4CC[C@@H](N5CC[C@@H](F)C5)C4)nc4c(OCC(F)(F)F)c(-c5c(C)ccc6[nH]ncc56)c(C5CC5)cc34)CC2)C1 [Compound 194] | < 300 | > 90
14 | C=CC(=O)N1CC2(CCN(c3nc(N4CC[C@H](N5CC[C@H](OC)C5)C4)nc4c(OCC(F)(F)F)c(-c5c(C)ccc6[nH]ncc56)c(C5CC5)cc34)CC2)C1 [Compound 195] | < 300 | > 90
15 | C=CC(=O)N1CC2(CCN(c3nc(N4CC[C@@H](N5CC[C@H](OC)C5)C4)nc4c(OCC(F)(F)F)c(-c5c(C)ccc6[nH]ncc56)c(C5CC5)cc34)CC2)C1 [Compound 196] | < 300 | > 90
16 | C=CC(=O)N1CC2(CCN(c3nc(N4CC[C@H](N5CC[C@@H](OC)C5)C4)nc4c(OCC(F)(F)F)c(-c5c(C)ccc6[nH]ncc56)c(C5CC5)cc34)CC2)C1 [Compound 197] | < 300 | > 90
17 | C=CC(=O)N1CC2(CCN(c3nc(N4CC[C@@H](N5CC[C@@H](OC)C5)C4)nc4c(OCC(F)(F)F)c(-c5c(C)ccc6[nH]ncc56)c(C5CC5)cc34)CC2)C1 [Compound 198] | < 300 | > 90
18 | C=CC(=O)N1CC2(CCN(c3nc(N4CC[C@H](N5CCC(F)(F)C5)C4)nc4c(OCC(F)(F)F)c(-c5c(C)ccc6[nH]ncc56)c(C5CC5)cc34)CC2)C1 [Compound 199] | 300 to 1000 | > 90
19 | C=CC(=O)N1CC2(CCN(c3nc(N4CC[C@@H](N5CC(F)C5)C4)nc4c(OCC(F)(F)F)c(-c5c(C)ccc6[nH]ncc56)c(C5CC5)cc34)CC2)C1 [Compound 202] | < 300 | > 90
20 | C=CC(=O)N1CC2(CCN(c3nc(N4CC[C@@H](N5CC(OC)C5)C4)nc4c(OCC(F)(F)F)c(-c5c(C)ccc6[nH]ncc56)c(C5CC5)cc34)CC2)C1 [Compound 204] | 300 to 1000 | > 90
21 | C=CC(=O)N1CC2(CCN(c3nc(N4CC[C@H](N5CC(F)(F)C5)C4)nc4c(OCC(F)(F)F)c(-c5c(C)ccc6[nH]ncc56)c(C5CC5)cc34)CC2)C1 [Compound 205] | 300 to 1000 | 50 to 90
22 | C=CC(=O)N1CC2(CCN(c3nc(N4CC[C@@H](N5CC(F)(F)C5)C4)nc4c(OCC(F)(F)F)c(-c5c(C)ccc6[nH]ncc56)c(C5CC5)cc34)CC2)C1 [Compound 206] | 300 to 1000 | 50 to 90
23 | C=CC(=O)N1CC2(CCN(c3nc(N4CC[C@H](N5CCCCC5)C4)nc4c(OCC(F)(F)F)c(-c5c(C)ccc6[nH]ncc56)c(C5CC5)cc34)CC2)C1 [Compound 207] | < 300 | > 90
24 | C=CC(=O)N1CC2(CCN(c3nc(N4CC[C@@H](N5CCCCC5)C4)nc4c(OCC(F)(F)F)c(-c5c(C)ccc6[nH]ncc56)c(C5CC5)cc34)CC2)C1 [Compound 208] | < 300 | > 90
25 | C=CC(=O)N1CC2(CCN(c3nc(N4CC[C@H](N5CCOCC5)C4)nc4c(OCC(F)(F)F)c(-c5c(C)ccc6[nH]ncc56)c(C5CC5)cc34)CC2)C1 [Compound 209] | < 300 | > 90
26 | C=CC(=O)N1CC2(CCN(c3nc(N4CC[C@@H](N5CCOCC5)C4)nc4c(OCC(F)(F)F)c(-c5c(C)ccc6[nH]ncc56)c(C5CC5)cc34)CC2)C1 [Compound 210] | < 300 | > 90

Now from value to compound, other results behind:

Row | IC50 (H358 cells) [nM] | Structure (SMILES) | inhibition at 1 µM (pERK level in H358 cells) [%]
27 | < 300 | C=CC(=O)N1CC2(CCN(c3nc(N4CC[C@H](N5CCC(F)CC5)C4)nc4c(OCC(F)(F)F)c(-c5c(C)ccc6[nH]ncc56)c(C5CC5)cc34)CC2)C1 [Compound 211] | > 90
28 | < 300 | C=CC(=O)N1CC2(CCN(c3nc(N4CC[C@@H](N5CCC(F)CC5)C4)nc4c(OCC(F)(F)F)c(-c5c(C)ccc6[nH]ncc56)c(C5CC5)cc34)CC2)C1 [Compound 212] | > 90
29 | 300 to 1000 | C=CC(=O)N1CC2(CCN(c3nc(N4CC[C@H](N5CCC(OC)CC5)C4)nc4c(OCC(F)(F)F)c(-c5c(C)ccc6[nH]ncc56)c(C5CC5)cc34)CC2)C1 [Compound 213] | 50 to 90
30 | 300 to 1000 | C=CC(=O)N1CC2(CCN(c3nc(N4CC[C@@H](N5CCC(OC)CC5)C4)nc4c(OCC(F)(F)F)c(-c5c(C)ccc6[nH]ncc56)c(C5CC5)cc34)CC2)C1 [Compound 214] | 50 to 90
31 | < 300 | C=CC(=O)N1CC2(CCN(c3nc(N4CCC(N5CCC5)CC4)nc4c(OCC(F)(F)F)c(-c5c(C)ccc6[nH]ncc56)c(C5CC5)cc34)CC2)C1 [Compound 215] | > 90
32 | < 300 | C=CC(=O)N1CC2(CCN(c3nc(N4CCC(N5CCCC5)CC4)nc4c(OCC(F)(F)F)c(-c5c(C)ccc6[nH]ncc56)c(C5CC5)cc34)CC2)C1 [Compound 216] | > 90
33 | < 300 | C=CC(=O)N1CC2(CCN(c3nc(N4CC(N5CCC5)C4)nc4c(OCC(F)(F)F)c(-c5c(C)c(C)cc6[nH]ncc56)c(C5CC5)cc34)CC2)C1 [Compound 217] | > 90
34 | < 300 | C=CC(=O)N1CC2(CCN(c3nc(N4CC(N5CCCC5)C4)nc4c(OCC(F)(F)F)c(-c5c(C)c(C)cc6[nH]ncc56)c(C5CC5)cc34)CC2)C1 [Compound 218] | > 90
35 | < 300 | C=CC(=O)N1CC2(CCN(c3nc(N4CC(N5CCC5)C4)nc4c(OCC(F)(F)F)c(-c5c(C)c(F)cc6[nH]ncc56)c(C5CC5)cc34)CC2)C1 [Compound 219] | > 90
36 | < 300 | C=CC(=O)N1CC2(CCN(c3nc(N4CC(N5CCCC5)C4)nc4c(OCC(F)(F)F)c(-c5c(C)c(F)cc6[nH]ncc56)c(C5CC5)cc34)CC2)C1 [Compound 220] | > 90
37 | < 300 | C=CC(=O)N1CC2(CCN(c3nc(N4CC(N5CCC5)C4)nc4c(OCC(F)(F)F)c(-c5c(C)c(C)cc6[nH]ncc56)c(C=C)cc34)CC2)C1 [Compound 221] | > 90
38 | < 300 | C=CC(=O)N1CC2(CCN(c3nc(N4CC(N5CCCC5)C4)nc4c(OCC(F)(F)F)c(-c5c(C)c(C)cc6[nH]ncc56)c(C=C)cc34)CC2)C1 [Compound 222] | > 90
39 | < 300 | C=CC(=O)N1CC2(CCN(c3nc(N4CC(N5CCC5)C4)nc4c(OCC(F)(F)F)c(-c5c(C)c(F)cc6[nH]ncc56)c(C=C)cc34)CC2)C1 [Compound 223] | > 90
40 | < 300 | C=CC(=O)N1CC2(CCN(c3nc(N4CC(N5CCCC5)C4)nc4c(OCC(F)(F)F)c(-c5c(C)c(F)cc6[nH]ncc56)c(C=C)cc34)CC2)C1 [Compound 224] | > 90
41 | < 300 | C=CC(=O)N1CC2(CCN(c3nc(N(C)CCN(C)C)nc4c(OCC(F)(F)F)c(-c5c(C)ccc6[nH]ncc56)c(C5CC5)cc34)CC2)C1 [Compound 225] | > 90

— US12479843B2, “Spiro ring-containing quinazoline compounds” (WIGEN BIOMEDICINE TECHNOLOGY (SHANGHAI) CO., LTD., priority 2019, dated 2025)
